In patent publication US7034035B2, “Fungicidal mono-, bi-, and tri-cycloheteroalkyl amides and their compositions, methods of use and preparation” (priority 1999, dated 2006):

Key:
[1] = system: Rhizoctonia solani (RHIZSO); test: microbe, parasite or virus in culture; assay type: cell-based
Ustilago maydis (USTIMA) = test: microbe, parasite or virus in culture; assay type: cell-based
Note: test concentration or dose not given here.

Row | SMILES | RHIZSO in vitro Growth Inhibition [1] | USTIMA in vitro Growth Inhibition (Ustilago maydis (USTIMA))
1 | CCCCCCCCCNC(=O)c1ncccc1O [Compound 201] | − (key: +: at least 80% growth inhibition; −: less than 80% growth inhibition) | − (key: +: at least 80% growth inhibition; −: less than 80% growth inhibition)
2 | O=C(NCC1CCCCC1)c1ncccc1O [Compound 202] | − (key: +: at least 80% growth inhibition; −: less than 80% growth inhibition) | − (key: +: at least 80% growth inhibition; −: less than 80% growth inhibition)
3 | O=C(NC1CCCCCCC1)c1ncccc1O [Compound 203] | + (key: +: at least 80% growth inhibition; −: less than 80% growth inhibition) | − (key: +: at least 80% growth inhibition; −: less than 80% growth inhibition)
4 | CC1(C)CC(NC(=O)c2ncccc2O)CC(C)(C2CC2)C1 (stereo not shown) [Compound 204] | − (key: +: at least 80% growth inhibition; −: less than 80% growth inhibition) | − (key: +: at least 80% growth inhibition; −: less than 80% growth inhibition)
5 | CC1(C)CC(NC(=O)c2ncccc2O)CC(C)(C)C1=O [Compound 205] | − (key: +: at least 80% growth inhibition; −: less than 80% growth inhibition) | − (key: +: at least 80% growth inhibition; −: less than 80% growth inhibition)
6 | O=C(NC1CCC(O)CC1)c1ncccc1O (stereo not shown) [Compound 208] | − (key: +: at least 80% growth inhibition; −: less than 80% growth inhibition) | − (key: +: at least 80% growth inhibition; −: less than 80% growth inhibition)
7 | CC(=O)OC1CCC(NC(=O)c2ncccc2O)CC1 (stereo not shown) [Compound 209] | − (key: +: at least 80% growth inhibition; −: less than 80% growth inhibition) | − (key: +: at least 80% growth inhibition; −: less than 80% growth inhibition)
8 | CC(C)C(=O)OC1CCC(NC(=O)c2ncccc2O)CC1 (stereo not shown) [Compound 210] | − (key: +: at least 80% growth inhibition; −: less than 80% growth inhibition) | − (key: +: at least 80% growth inhibition; −: less than 80% growth inhibition)
9 | O=C(OC1CCC(NC(=O)c2ncccc2O)CC1)c1ccccc1 (stereo not shown) [Compound 211] | − (key: +: at least 80% growth inhibition; −: less than 80% growth inhibition) | − (key: +: at least 80% growth inhibition; −: less than 80% growth inhibition)
10 | O=C(Nc1cccc(Cl)c1)c1ncccc1O [Compound 212] | − (key: +: at least 80% growth inhibition; −: less than 80% growth inhibition) | − (key: +: at least 80% growth inhibition; −: less than 80% growth inhibition)
11 | O=C(Nc1cccc(C(F)(F)F)c1)c1ncccc1O [Compound 214] | − (key: +: at least 80% growth inhibition; −: less than 80% growth inhibition) | − (key: +: at least 80% growth inhibition; −: less than 80% growth inhibition)
12 | Cc1cc(C)cc(NC(=O)c2ncccc2O)c1 [Compound 215] | − (key: +: at least 80% growth inhibition; −: less than 80% growth inhibition) | − (key: +: at least 80% growth inhibition; −: less than 80% growth inhibition)
13 | COc1cc(NC(=O)c2ncccc2O)cc(OC)c1 [Compound 216] | − (key: +: at least 80% growth inhibition; −: less than 80% growth inhibition) | − (key: +: at least 80% growth inhibition; −: less than 80% growth inhibition)
14 | O=C(Nc1ccc(Oc2ccc(C(F)(F)F)cc2)cc1)c1ncccc1O [Compound 217] | − (key: +: at least 80% growth inhibition; −: less than 80% growth inhibition) | − (key: +: at least 80% growth inhibition; −: less than 80% growth inhibition)
15 | O=C(NCc1ccccc1Cl)c1ncccc1O [Compound 218] | + (key: +: at least 80% growth inhibition; −: less than 80% growth inhibition) | + (key: +: at least 80% growth inhibition; −: less than 80% growth inhibition)
16 | O=C(NCc1cccc(Cl)c1)c1ncccc1O [Compound 219] | + (key: +: at least 80% growth inhibition; −: less than 80% growth inhibition) | + (key: +: at least 80% growth inhibition; −: less than 80% growth inhibition)
17 | O=C(NCc1ccc(Cl)cc1)c1ncccc1O [Compound 220] | + (key: +: at least 80% growth inhibition; −: less than 80% growth inhibition) | + (key: +: at least 80% growth inhibition; −: less than 80% growth inhibition)
18 | O=C(NCc1ccc(Cl)c(Cl)c1)c1ncccc1O [Compound 221] | − (key: +: at least 80% growth inhibition; −: less than 80% growth inhibition) | − (key: +: at least 80% growth inhibition; −: less than 80% growth inhibition)
19 | Cc1cccc(CNC(=O)c2ncccc2O)c1 [Compound 222] | − (key: +: at least 80% growth inhibition; −: less than 80% growth inhibition) | − (key: +: at least 80% growth inhibition; −: less than 80% growth inhibition)

Row | SMILES | RHIZSO in vitro Growth Inhibition [1] | USTIMA in vitro Growth Inhibition (Ustilago maydis (USTIMA))
20 | Cc1ccc(CNC(=O)c2ncccc2O)cc1 [Compound 223] | − (key: +: at least 80% growth inhibition; −: less than 80% growth inhibition) | + (key: +: at least 80% growth inhibition; −: less than 80% growth inhibition)
21 | COc1ccccc1CNC(=O)c1ncccc1O [Compound 224] | − (key: +: at least 80% growth inhibition; −: less than 80% growth inhibition) | − (key: +: at least 80% growth inhibition; −: less than 80% growth inhibition)
22 | COc1cccc(CNC(=O)c2ncccc2O)c1 [Compound 225] | − (key: +: at least 80% growth inhibition; −: less than 80% growth inhibition) | − (key: +: at least 80% growth inhibition; −: less than 80% growth inhibition)
23 | COc1ccc(CNC(=O)c2ncccc2O)cc1 [Compound 226] | − (key: +: at least 80% growth inhibition; −: less than 80% growth inhibition) | − (key: +: at least 80% growth inhibition; −: less than 80% growth inhibition)
24 | COc1cccc(CNC(=O)c2ncccc2O)c1OC [Compound 227] | − (key: +: at least 80% growth inhibition; −: less than 80% growth inhibition) | − (key: +: at least 80% growth inhibition; −: less than 80% growth inhibition)
25 | O=C(NCc1cccc2ccccc12)c1ncccc1O [Compound 228] | − (key: +: at least 80% growth inhibition; −: less than 80% growth inhibition) | − (key: +: at least 80% growth inhibition; −: less than 80% growth inhibition)
26 | CC(NC(=O)c1ncccc1O)c1ccccc1 (stereo not shown) [Compound 229] | − (key: +: at least 80% growth inhibition; −: less than 80% growth inhibition) | − (key: +: at least 80% growth inhibition; −: less than 80% growth inhibition)
27 | CC(NC(=O)c1ncccc1O)c1ccc(Cl)cc1 (stereo not shown) [Compound 230] | − (key: +: at least 80% growth inhibition; −: less than 80% growth inhibition) | − (key: +: at least 80% growth inhibition; −: less than 80% growth inhibition)
28 | C[C@@H](NC(=O)c1ncccc1O)c1cccc2ccccc12 [Compound 231] | − (key: +: at least 80% growth inhibition; −: less than 80% growth inhibition) | − (key: +: at least 80% growth inhibition; −: less than 80% growth inhibition)
29 | C[C@H](NC(=O)c1ncccc1O)c1cccc2ccccc12 [Compound 232] | − (key: +: at least 80% growth inhibition; −: less than 80% growth inhibition) | − (key: +: at least 80% growth inhibition; −: less than 80% growth inhibition)
30 | O=C(NCCc1ccc(Cl)cc1)c1ncccc1O [Compound 233, N-(2-(4-Chlorophenyl)Ethyl)-3-Hydroxypyridine-2-Carboxamide] | − (key: +: at least 80% growth inhibition; −: less than 80% growth inhibition) | + (key: +: at least 80% growth inhibition; −: less than 80% growth inhibition)
31 | O=C(NCCCCc1ccccc1)c1ncccc1O [Compound 234] | − (key: +: at least 80% growth inhibition; −: less than 80% growth inhibition) | − (key: +: at least 80% growth inhibition; −: less than 80% growth inhibition)
32 | O=C(Nc1nccs1)c1ncccc1O [Compound 235] | + (key: +: at least 80% growth inhibition; −: less than 80% growth inhibition) | + (key: +: at least 80% growth inhibition; −: less than 80% growth inhibition)
33 | Cc1ccnc(C(=O)NC2CC(C)(C)CC(C)(C)C2)c1O [Compound 236] | − (key: +: at least 80% growth inhibition; −: less than 80% growth inhibition) | − (key: +: at least 80% growth inhibition; −: less than 80% growth inhibition)
34 | Cc1ccnc(C(=O)Nc2ccc(Oc3cccc(C(F)(F)F)c3)cc2)c1O [Compound 238] | − (key: +: at least 80% growth inhibition; −: less than 80% growth inhibition) | − (key: +: at least 80% growth inhibition; −: less than 80% growth inhibition)
35 | COc1ccnc(C(=O)NCC#CCCl)c1O [Compound 239] | − (key: +: at least 80% growth inhibition; −: less than 80% growth inhibition) | − (key: +: at least 80% growth inhibition; −: less than 80% growth inhibition)
36 | COc1ccnc(C(=O)NCC2C(C=C(C)C)C2(C)C)c1O (stereo not shown) [Compound 241] | + (key: +: at least 80% growth inhibition; −: less than 80% growth inhibition) | − (key: +: at least 80% growth inhibition; −: less than 80% growth inhibition)
37 | COc1ccnc(C(=O)NC2CCN(C(=O)c3ccccc3)CC2)c1O [Compound 308] |  | − (key: +: at least 80% growth inhibition; −: less than 80% growth inhibition)
